From patent US20250075235A1, “PRODUCTION OF ETHANOL WITH ONE OR MORE CO-PRODUCTS IN YEAST” (Braskem S.A., priority 2020, published 2025)

Assays:
[1] = system: industrial ethanol-producing yeast strain PE-2; assay: Laboratory simulation of yeast sugar-ethanol fermentation with exogenously added alcohols; assay type: cell-based, Saccharomyces cerevisiae; conditions: 1 L bioreactor, 224 g/L glucose, pH 4.5, 32° C., 70 hours; about 16 g alcohol added
Protocol: The experiment was performed using a 1 L bioreactor with 0.7 L as a final volume. The pH was controlled at 4.5 by adding NaOH 25% w/w, 32° C. temperature and 300 rpm stirring. The industrial ethanol-producing yeast strain used was PE-2, with an initial pitch of 0.7 g/L DWC and the culture medium was YNB without amino acids. The final sugar concentration was 224 g/L glucose. The experiment was performed under aseptic conditions. The bioreactor was first filled with 650 ml of YNB medium plus sugar, and after pH and temperature stabilization, a suspension of 50 mL with the yeast inoculum was added into the bioreactor. […] Each solution followed the profile: 10 hours since inoculation, 0.2 mL/min; from 11 hours to 15 hours, 0.4 mL/min; from 16 hours to 40 hours, 0.6 mL/min; and from 41 hours to 46 hours, 0.2 mL/min. This profile was added to simulate an ethanol production profile of PE-2 yeast. The fermentation was ended with 70 hours of fermentation run.

[2] = system: industrial ethanol-producing yeast strain PE-2; assay: Alcohol tolerance experiment: sugar (glucose) consumption of yeast cultures with added alcohols; assay type: cell-based, Saccharomyces cerevisiae; conditions: for Sugar Consumption: PE-2, YNB medium, 40 g/L glucose, 32° C., 8-9 hours, no consumption = lethal concentration; for Toxicity related to ethanol (times more inhibition than ethanol): ratio of sugar consumption inhibition per unit of alcohol to that of ethanol; for Sugar consumption inhibition per unit of alcohol regarding the Control (+) condition (no alcohol added) / Slope (linear regression of sugar consumption inhibition against alcohol concentration): samples two hours after inoculation; for Slope (linear regression of sugar consumption inhibition against alcohol concentration): alcohol concentration in g/L
Protocol: An alcohol tolerance experiment was conducted to understand the negative effects of n-propanol (i.e., 1-propanol), 2-propanol, and 2-butanol compared to ethanol in Saccharomyces cerevisiae. Ethanol, which is a natural product (or native product) produced during sugar-ethanol fermentation is generally well-tolerated by yeast such as S. cerevisiae. However, existing approaches to produce non-natural chemicals such as C3, C4, or C5 alcohols, ketones, organic acids, or other non-natural products (e.g., alcohols other than ethanol) by using genetically modified yeast are usually impacted negatively by the higher toxicity compared to ethanol of such non-natural chemicals or alcohols (e.g., n-propanol and 2-propanol) to the yeast cell-growth and/or performance.
Several concentrations of n-propanol, 2-propanol, 2-butanol and ethanol was tested in yeast cultures. The experiment was conducted using the industrial ethanol-producing yeast strain PE-2 in a 250 mL shaken flask with 50 mL of YNB medium having 40g/L glucose at 32° C. The culture was conducted during 8-9 hours with an initial OD600 nm=12 (OD=optical density). Samples were taken in adequate intervals and analyzed by HPLC to measure glucose, ethanol, n-propanol, 2-propanol and 2-butanol. The experiment was performed according to the parameters in Table 13, in duplicate. The conditions at which no sugar consumption was observed were considered a lethal concentration and were excluded from the analysis.
The percentage of glucose consumption inhibition was assessed for various concentrations of alcohols. Samples were tested two hours after inoculation. At this point, glucose had not been totally consumed.

Compound	Ethanol produced [1] [g]	Ethanol yield [1] [g/g]	Volumetric productivity [1] [g/Lh]	Sugar Consumption ([2]; alcohol 20 g/L)	Sugar Consumption ([2]; alcohol 40 g/L)	Sugar Consumption ([2]; alcohol 60 g/L)	Sugar Consumption ([2]; alcohol 80 g/L)	Toxicity related to ethanol (times more inhibition than ethanol) [2]	Sugar consumption inhibition per unit of alcohol regarding the Control (+) condition (no alcohol added) [2]	Slope (linear regression of sugar consumption inhibition against alcohol concentration) [2]	Sugar Consumption ([2]; alcohol 120 g/L)
CCO [Condition 1, ethanol]	80.9	0.5	1.4								
n-propanol				Yes	Yes	Yes	No	2.16	1.34% per g · L^−1 of alcohol	0.0134	
CC(C)O [2-Propanol, isopropyl alcohol]				Yes	Yes	Yes	Yes	1.45	0.90% per g · L^−1 of alcohol	0.009	
2-butanol				Yes	Yes	No	No	2.94	1.82% per g · L^−1 of alcohol	0.0182	
CCO [Ethanol, ethanol]				Yes	Yes	Yes	Yes		0.62% per g · L^−1 of alcohol	0.0062	Yes
